Measured values taken from patent US8067044B2, “Cosmetic compositions containing an extract of leaves of the Castanea sativa plant and cosmetic treatments” (Cognis France S.A.S., priority 2004, dated 2011).
Each block holds one compound with its values, some of them ahead of it.

Tests used:
[1] = Anti-DPPH test (free radical scavenging); details: average of 2 assays
Text: 1.2 Methods and principle of this experiment: The anti-free radical (anti-FR) activity has been evaluated by chemical tests for the evaluation of the potential to scavenge free radicals R (DPPH test) and hydroxyl radicals HO. The anti-FR activity has been evaluated also by biochemical tests to address the potential for scavenging of a kind of reactive oxygen species (ROS), the so called super oxide anion (O2). […] Xanthine oxydase (XOD) is an enzyme activated during oxidative stress, this enzyme catalyses the O2 release along the degradation of hypoxanthin (HX) which has been overproduced by a disruption of energetic cell metabolism. […] Principle: DPPH (diphenylpicryl-hydrazyl) is a stable free radical which forms a purple solution. The purple solution of DPPH^o has a whitening effect due to components that act as radical-scavengers. […] The results are expressed in percent inhibition of DPPH radical against control. The aim of this test is to show an anti-free radical activity.

[2] = test system: Raphanus sativus seed germination; details: cited from earlier work
[3] = test system: strains of Gram-positive and Gram-negative bacteria; details: same bacterial strains; cited from earlier work
[4] = test system: B16 melanocytes; assay: Inhibition of melanin synthesis on B16 melanocytes; format: cell-based; details: for Rate of cellular proteins / Rate of melanin: control = 100; for rate of released melanin (comment): treated B16 melanocytes
Experimental: Aim of the experiment: to evaluate the potential of compounds to lower the melanin synthesis; the compounds have been tested on cell culture of melanocytes called B16.
• Seeding of melanocytes in growth medium • Incubation for 3 days at 37° C., CO2=5% (atmosphere: 5% carbon dioxide in air) • Exchange of the growth medium by a medium with a range of concentration of ingredients to be tested • Incubation for 3 days at 37° C., CO2=5% (atmosphere: 5% carbon dioxide in air) • Recording of Cellular levels of protein by Bradford's method • Recording of melanin by a spectrophotometric method (OD at 475 nm)

[5] = test system: Lipoxygenase; assay: Inhibition test on lipoxygenase (superoxide anions, luminol); format: biochemical
Text: (§1) 1.2 Methods and principle of this experiment: The anti-free radical (anti-FR) activity has been evaluated by chemical tests for the evaluation of the potential to scavenge free radicals R (DPPH test) and hydroxyl radicals HO. The anti-FR activity has been evaluated also by biochemical tests to address the potential for scavenging of a kind of reactive oxygen species (ROS), the so called super oxide anion (O2). The O2 originates mainly from xanthine oxydase and lipoxygenase activities. Xanthine oxydase (XOD) is an enzyme activated during oxidative stress, this enzyme catalyses the O2 release along the degradation of hypoxanthin (HX) which has been overproduced by a disruption of energetic cell metabolism.
Lipoxygenase was incubated with a specific substrate (unsaturated fatty acid) and the ingredient to be tested. Then the rate of released superoxide anions was evaluated by a luminescent probe (luminol). Caffeic acid was tested as reference ingredient.

[6] = Anti-HO test with deoxyribose (Fenton's reaction), reaction with EDTA
Text: as §1
Principle: The hydroxyl radical HO— (formed by H2O2 in presence of Fe++ with EDTA) oxidises deoxyribose (a component of DNA), then a pink compound is formed by condensation of thiobarbituric acid with oxidised form of deoxyribose. The optical density at 532 nm corresponds to the level of oxidised deoxyribose. An anti-free radical substance reacts with these radicals HO— and reduces the formation of this pink compound.
(§2) The results are expressed in percent of inhibition of HO— radical against control. The aim of this test is to show an anti-free radical activity.

[7] = Anti-HO test with deoxyribose (Fenton's reaction), reaction without EDTA
Text: as §1
[…] The optical density at 532 nm corresponds to the level of oxidised deoxyribose. An anti-free radical substance reacts with these radicals HO— and reduces the formation of this pink compound.
as §2

[8] = target: Xanthine oxidase (Homo sapiens, UniProt P47989); assay: Inhibition test on xanthine oxidase (superoxide anion revealed by NBT); format: biochemical
Text: as §1
Xanthine oxydase is an enzyme induced during oxidative stress: it catabolises the puric bases (adenine, guanine) in uric acid and superoxide anions O2— dismutates spontaneously (or by the action of SOD=superoxyde dismutase) in H2O2 and O2.
A substance with an anti-free-radical-activity absorbs or destroys the O2— anion and thereby it reduces the optical density.
The results are expressed in percent of inhibition of O2— radical against control. The aim of this test is to show an anti-free radical activity.
As to the meaning of U/ml: for an enzyme, the dose is expressed in Units/ml for unity. In the other cases, it is not enzymes.

[9] = test system: human fibroblasts; assay: Inhibition of UVA effect on human fibroblasts (released MDA); format: cell-based
Experimental: Aim of the experiment: Determination of the potential of the tested ingredient to reduce negative effects of UV-A radiation on the survival rate of human fibroblasts.
• Seeding of human fibroblasts in a growth medium • Incubation for 3 days at 37° C., CO2=5% (atmosphere: 5% carbon dioxide in air) • Exchange of the growth medium by a medium with a range of concentration of ingredients to be tested • Incubation for 2 days at 37° C., CO2=5% • Exchange of the medium with ingredients by a balanced salt solution and UV-A irradiation (20 J/cm^2) • Recording of released MDA levels by spectro-fluorimetry. (MDA (malonaldialdehyde) is a product of oxidative degradation of lipids from cell membranes)

Sequence of Xanthine oxidase (P47989 whole entry, species assumed): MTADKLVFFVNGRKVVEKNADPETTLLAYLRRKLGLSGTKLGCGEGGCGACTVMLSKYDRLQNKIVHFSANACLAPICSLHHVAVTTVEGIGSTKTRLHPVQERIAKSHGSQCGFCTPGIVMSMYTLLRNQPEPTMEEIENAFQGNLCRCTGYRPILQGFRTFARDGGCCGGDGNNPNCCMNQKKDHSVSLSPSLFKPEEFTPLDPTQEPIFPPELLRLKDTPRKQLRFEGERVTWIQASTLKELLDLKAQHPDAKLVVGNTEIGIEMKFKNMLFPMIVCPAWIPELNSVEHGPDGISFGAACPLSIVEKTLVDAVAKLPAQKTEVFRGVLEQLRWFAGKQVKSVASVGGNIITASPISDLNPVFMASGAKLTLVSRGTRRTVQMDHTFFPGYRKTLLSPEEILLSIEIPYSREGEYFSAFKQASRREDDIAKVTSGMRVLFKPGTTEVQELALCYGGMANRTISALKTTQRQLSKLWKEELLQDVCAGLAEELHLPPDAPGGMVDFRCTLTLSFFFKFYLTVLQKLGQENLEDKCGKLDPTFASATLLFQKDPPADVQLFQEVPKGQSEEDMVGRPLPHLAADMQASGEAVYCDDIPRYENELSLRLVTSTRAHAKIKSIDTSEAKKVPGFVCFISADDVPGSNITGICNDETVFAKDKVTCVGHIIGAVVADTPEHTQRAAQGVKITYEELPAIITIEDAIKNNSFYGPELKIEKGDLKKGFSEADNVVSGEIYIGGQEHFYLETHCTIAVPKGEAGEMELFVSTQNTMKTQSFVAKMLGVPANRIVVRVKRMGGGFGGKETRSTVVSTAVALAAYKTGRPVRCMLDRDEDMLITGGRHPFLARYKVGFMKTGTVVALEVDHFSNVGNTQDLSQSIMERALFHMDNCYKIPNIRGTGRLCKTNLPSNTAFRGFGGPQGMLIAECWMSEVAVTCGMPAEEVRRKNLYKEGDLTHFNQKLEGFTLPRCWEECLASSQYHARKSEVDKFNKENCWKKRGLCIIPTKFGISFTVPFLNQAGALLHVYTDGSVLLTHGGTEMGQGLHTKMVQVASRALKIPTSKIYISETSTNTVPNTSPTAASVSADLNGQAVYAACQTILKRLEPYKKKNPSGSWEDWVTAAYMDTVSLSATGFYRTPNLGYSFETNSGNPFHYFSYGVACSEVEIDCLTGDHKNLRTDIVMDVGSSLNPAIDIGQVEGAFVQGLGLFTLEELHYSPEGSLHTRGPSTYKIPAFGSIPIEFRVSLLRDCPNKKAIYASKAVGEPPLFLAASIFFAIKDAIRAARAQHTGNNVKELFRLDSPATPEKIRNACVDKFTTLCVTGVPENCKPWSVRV

Compound: O=C1O[C@H]([C@@H](O)CO)C(O)=C1O [Vitamin C, ascorbic acid]
% of inhibition of DPPH radical/control ([1]; 0.0003 % (w/v)): 19%
% of inhibition of DPPH radical/control ([1]; 0.001 % (w/v)): 58%
% of inhibition of DPPH radical/control ([1]; 0.003 % (w/v)): 74%
% of inhibition of DPPH radical/control ([1]; 0.01 % (w/v)): 68%

Compound: O=c1cc(-c2ccc(O)cc2)oc2cc(O)cc(O)c12 [apigenin]
percentage of seed germination and root and epicotyl growth [2]: decrease
antibacterial activity among standards of the identified flavonoids [3]: highest activity

Compound: OC[C@H]1O[C@@H](Oc2ccc(O)cc2)[C@H](O)[C@@H](O)[C@@H]1O [arbutin]
Rate of cellular proteins ([4]; dose 0.2 % w/v): 91 % against control
Rate of melanin ([4]; dose 0.2 % w/v): 64 % against control
rate of released melanin (comment) [4]: strongly decreased

% of inhibition (lipoxygenase, released superoxide anions) ([5]; 0.00002 % (w/v)): 18%
% of inhibition (lipoxygenase, released superoxide anions) ([5]; 0.0002 % (w/v)): 53%
Compound: O=C(O)/C=C/c1ccc(O)c(O)c1 [caffeic acid]

Compound: O=c1cc(CO)occ1O [kojic acid]
Rate of cellular proteins ([4]; dose 0.03 % w/v): 109 % against control
Rate of melanin ([4]; dose 0.03 % w/v): 32 % against control
rate of released melanin (comment) [4]: strongly decreased

Compound: OC[C@@H](O)[C@@H](O)[C@H](O)[C@H](O)CO [mannitol]
% of inhibition of HO— radical/control ([6]; 0.06 % (w/v)): 25%
% of inhibition of HO— radical/control ([6]; 0.6 % (w/v)): 68%

Compound: c1cnc2c(c1)ccc1cccnc12 [o-phenanthroline]
% of inhibition of HO— radical/control ([7]; 0.02 % (w/v)): 42%
% of inhibition of HO— radical/control ([7]; 0.06 % (w/v)): 71%

Compound: O=c1c(O)c(-c2ccc(O)c(O)c2)oc2cc(O)cc(O)c12 [quercetin]
percentage of seed germination and root and epicotyl growth [2]: decrease
antibacterial activity among standards of the identified flavonoids [3]: highest activity

% of inhibition of O2— radical against control ([8]; 0.5 U/ml): 18%
% of inhibition of O2— radical against control ([8]; 5 U/ml): 50%
% of inhibition of O2— radical against control ([8]; 50 U/ml): 95%
IC50 ([8]; enzyme reference, Units/ml): 5 U/ml
Compound: SOD: superoxyde dismutase, enzyme used as reference, dosed in U/ml

Compound: Vitamin E
rate of released MDA from UV-A irradiated fibroblasts (comment) ([9]; UV-A irradiated human fibroblasts): strongly decreased
Rate of released MDA ([9]; dose 0.0003 % w/v, UV-A 20 J/cm2 (irradiated control = 100)): 7 % against control
